# Data: paper PMC5380139 (FEBS letters, 2017)
# Molecular target: T1, LipL (Streptomyces sp., UniProt D4QF25)
# T1 sequence (D4QF25 1-274): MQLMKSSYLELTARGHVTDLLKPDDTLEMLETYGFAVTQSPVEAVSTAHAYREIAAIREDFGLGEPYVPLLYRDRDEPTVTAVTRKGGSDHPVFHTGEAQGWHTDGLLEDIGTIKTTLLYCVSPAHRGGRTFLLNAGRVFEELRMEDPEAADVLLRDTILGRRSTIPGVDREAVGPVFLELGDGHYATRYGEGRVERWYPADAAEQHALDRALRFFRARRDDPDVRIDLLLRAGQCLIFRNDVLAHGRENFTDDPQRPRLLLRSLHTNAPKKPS
# Type: biochemical
compound,measurement,value
"O=c1ccn([C@@H]2O[C@H](CCP(=O)(O)O)[C@@H](O)[C@H]2O)c(=O)[nH]1 [UMcP, 5′-deoxyuridine-5′-methylphosphonate]",Ki,800 nM
